Measurements published in patent publication US20230263822A1, “MODULATION OF FACTOR 11 EXPRESSION” (Ionis Pharmaceuticals, Inc., priority 2008, published 2023).
Strand notation (5' to 3'): a small letter for the sugar, then the base; units joined by * are phosphorothioate-linked, units joined directly phosphodiester-linked; [ ] holds rarer units or linkages, { } end groups; capitals alone tell only the bases. e = 2'-O-(2-methoxyethyl) (MOE); [5mC] = 5-methylcytosine; d = 2'-deoxy (DNA)

Assay: Hematology assays in cynomolgus monkeys (Example 46)
Assay type: in vivo
Method: Groups, each consisting of two male and two female monkeys, were injected subcutaneously with 25 mg/kg of ISIS 416850, ISIS 449709, ISIS 445522, ISIS 449710, ISIS 449707, ISIS 449711, ISIS 449708, 416858, and ISIS 445531. Antisense oligonucleotide was administered to the monkeys at 25 mg/kg three times per week for week 1 and 25 mg/kg twice per week for weeks 2 to 8. A control group, consisting of two male and two female monkeys was injected subcutaneously with PBS according to the same dosing regimen. Body weights were taken 14 days and 7 days before the start of treatment and were then measured weekly throughout the treatment period. Blood samples were collected 14 days and 5 days before the start of treatment and subsequently several times during the dosing regimen for PT and aPTT measurements, and measurement of various hematologic factors. On day 55, the monkeys were euthanized by exsanguination while under deep anesthesia, and organs harvested for further analysis.

Substance: ISIS 445522: 5-8-5 or 6-8-6 MOE microwalk gapmer (Table 44) (antisense eG*e[5mC]*eA*e[5mC]*eA*dG*dT*dT*dT*d[5mC]*dT*dG*dG*e[5mC]*eA*eG*eG*e[5mC])
- HCT (Day 17): 41%
- MCH (Day 17): 22.8 pg
- MCHC (Day 17): 30.9 g/dL
- MCV (Day 17): 74 fL
- RBC count (Day 17): 5.6e+06 µL⁻¹
- WBC count (Day 17): 11000 µL⁻¹
- hemoglobin content (Day 17): 12.7 g/dL
- monocytes (Day 17): 3.6%
- neutrophils (Day 17): 81%
- platelet count (Day 17): 521 ×100/μL
- HCT (Day 31): 43%
- MCH (Day 31): 22.4 pg
- MCHC (Day 31): 30.0 g/dL
- MCV (Day 31): 75 fL
- RBC count (Day 31): 5.8e+06 µL⁻¹
- WBC count (Day 31): 13000 µL⁻¹
- hemoglobin content (Day 31): 12.9 g/dL
- monocytes (Day 31): 3.9%
- neutrophils (Day 31): 66%
- platelet count (Day 31): 425 ×100/μL
- HCT (Day 45): 41%
- MCH (Day 45): 22.4 pg
- MCHC (Day 45): 30.7 g/dL
- MCV (Day 45): 73 fL
- RBC count (Day 45): 5.7e+06 µL⁻¹
- WBC count (Day 45): 10000 µL⁻¹
- hemoglobin content (Day 45): 12.6 g/dL
- monocytes (Day 45): 4.4%
- neutrophils (Day 45): 69%
- platelet count (Day 45): 403 ×100/μL
- HCT (Day 55): 39%
- MCH (Day 55): 22.2 pg
- MCHC (Day 55): 31.0 g/dL
- MCV (Day 55): 72 fL
- RBC count (Day 55): 5.4e+06 µL⁻¹
- WBC count (Day 55): 11000 µL⁻¹
- hemoglobin content (Day 55): 12.0 g/dL
- monocytes (Day 55): 3.0%
- neutrophils (Day 55): 125%
- platelet count (Day 55): 333 ×100/μL
- HCT (Day-5): 42%
- MCH (Day-5): 22.5 pg
- MCHC (Day-5): 30.4 g/dL
- MCV (Day-5): 74 fL
- RBC count (Day-5): 5.6e+06 µL⁻¹
- WBC count (Day-5): 9000 µL⁻¹
- hemoglobin content (Day-5): 12.7 g/dL
- monocytes (Day-5): 2.3%
- neutrophils (Day-5): 84%
- platelet count (Day-5): 512 ×100/μL
- HCT (Day-14): 42%
- MCH (Day-14): 22.6 pg
- MCHC (Day-14): 31.4 g/dL
- MCV (Day-14): 72 fL
- RBC count (Day-14): 5.9e+06 µL⁻¹
- WBC count (Day-14): 10000 µL⁻¹
- hemoglobin content (Day-14): 13.3 g/dL
- monocytes (Day-14): 2.1%
- neutrophils (Day-14): 61%
- platelet count (Day-14): 433 ×100/μL

Substance: ISIS 445531: 5-8-5 or 6-8-6 MOE microwalk gapmer (Table 44) (antisense eG*eG*e[5mC]*eA*eT*dT*dG*dG*dT*dG*d[5mC]*dA*d[5mC]*eA*eG*eT*eT*eT)
- HCT (Day 17): 43%
- MCH (Day 17): 22.1 pg
- MCHC (Day 17): 29.5 g/dL
- MCV (Day 17): 75 fL
- RBC count (Day 17): 5.8e+06 µL⁻¹
- WBC count (Day 17): 17000 µL⁻¹
- hemoglobin content (Day 17): 12.7 g/dL
- monocytes (Day 17): 3.4%
- neutrophils (Day 17): 85%
- platelet count (Day 17): 380 ×100/μL
- HCT (Day 31): 41%
- MCH (Day 31): 22.0 pg
- MCHC (Day 31): 29.7 g/dL
- MCV (Day 31): 75 fL
- RBC count (Day 31): 5.6e+06 µL⁻¹
- WBC count (Day 31): 17000 µL⁻¹
- hemoglobin content (Day 31): 12.3 g/dL
- monocytes (Day 31): 4.1%
- neutrophils (Day 31): 116%
- platelet count (Day 31): 376 ×100/μL
- HCT (Day 45): 41%
- MCH (Day 45): 21.6 pg
- MCHC (Day 45): 29.0 g/dL
- MCV (Day 45): 75 fL
- RBC count (Day 45): 5.5e+06 µL⁻¹
- WBC count (Day 45): 20000 µL⁻¹
- hemoglobin content (Day 45): 12.0 g/dL
- monocytes (Day 45): 4.4%
- neutrophils (Day 45): 93%
- platelet count (Day 45): 345 ×100/μL
- HCT (Day 55): 41%
- MCH (Day 55): 21.7 pg
- MCHC (Day 55): 29.6 g/dL
- MCV (Day 55): 74 fL
- RBC count (Day 55): 5.6e+06 µL⁻¹
- WBC count (Day 55): 15000 µL⁻¹
- hemoglobin content (Day 55): 12.1 g/dL
- monocytes (Day 55): 4.1%
- neutrophils (Day 55): 91%
- platelet count (Day 55): 319 ×100/μL
- HCT (Day-5): 42%
- MCH (Day-5): 22.2 pg
- MCHC (Day-5): 30.0 g/dL
- MCV (Day-5): 74 fL
- RBC count (Day-5): 5.7e+06 µL⁻¹
- WBC count (Day-5): 15000 µL⁻¹
- hemoglobin content (Day-5): 12.6 g/dL
- monocytes (Day-5): 2.2%
- neutrophils (Day-5): 80%
- platelet count (Day-5): 416 ×100/μL
- HCT (Day-14): 41%
- MCH (Day-14): 22.2 pg
- MCHC (Day-14): 30.9 g/dL
- MCV (Day-14): 72 fL
- RBC count (Day-14): 5.7e+06 µL⁻¹
- WBC count (Day-14): 20000 µL⁻¹
- hemoglobin content (Day-14): 12.6 g/dL
- monocytes (Day-14): 1.3%
- neutrophils (Day-14): 60%
- platelet count (Day-14): 379 ×100/μL

Substance: ISIS 449707: 3-8-3, 4-8-4, 2-10-2, 3-10-3 or 4-10-4 MOE microwalk gapmer (Table 46) (antisense e[5mC]*eA*e[5mC]*eA*dG*dT*dT*dT*d[5mC]*dT*dG*dG*e[5mC]*eA*eG*eG)
- HCT (Day 17): 42%
- MCH (Day 17): 22.1 pg
- MCHC (Day 17): 30.0 g/dL
- MCV (Day 17): 74 fL
- RBC count (Day 17): 5.7e+06 µL⁻¹
- WBC count (Day 17): 12000 µL⁻¹
- hemoglobin content (Day 17): 12.7 g/dL
- monocytes (Day 17): 3.2%
- neutrophils (Day 17): 80%
- platelet count (Day 17): 408 ×100/μL
- HCT (Day 31): 43%
- MCH (Day 31): 22.1 pg
- MCHC (Day 31): 29.8 g/dL
- MCV (Day 31): 74 fL
- RBC count (Day 31): 5.7e+06 µL⁻¹
- WBC count (Day 31): 11000 µL⁻¹
- hemoglobin content (Day 31): 12.7 g/dL
- monocytes (Day 31): 4.2%
- neutrophils (Day 31): 89%
- platelet count (Day 31): 408 ×100/μL
- HCT (Day 45): 43%
- MCH (Day 45): 22.6 pg
- MCHC (Day 45): 29.8 g/dL
- MCV (Day 45): 73 fL
- RBC count (Day 45): 5.9e+06 µL⁻¹
- WBC count (Day 45): 12000 µL⁻¹
- hemoglobin content (Day 45): 12.9 g/dL
- monocytes (Day 45): 4.0%
- neutrophils (Day 45): 89%
- platelet count (Day 45): 424 ×100/μL
- HCT (Day 55): 42%
- MCH (Day 55): 21.9 pg
- MCHC (Day 55): 30.0 g/dL
- MCV (Day 55): 73 fL
- RBC count (Day 55): 5.8e+06 µL⁻¹
- WBC count (Day 55): 8000 µL⁻¹
- hemoglobin content (Day 55): 12.6 g/dL
- monocytes (Day 55): 4.8%
- neutrophils (Day 55): 98%
- platelet count (Day 55): 399 ×100/μL
- HCT (Day-5): 43%
- MCH (Day-5): 22.2 pg
- MCHC (Day-5): 29.8 g/dL
- MCV (Day-5): 75 fL
- RBC count (Day-5): 5.8e+06 µL⁻¹
- WBC count (Day-5): 11000 µL⁻¹
- hemoglobin content (Day-5): 12.8 g/dL
- monocytes (Day-5): 2.3%
- neutrophils (Day-5): 106%
- platelet count (Day-5): 464 ×100/μL
- HCT (Day-14): 40%
- MCH (Day-14): 22.2 pg
- MCHC (Day-14): 31.4 g/dL
- MCV (Day-14): 71 fL
- RBC count (Day-14): 5.7e+06 µL⁻¹
- WBC count (Day-14): 13000 µL⁻¹
- hemoglobin content (Day-14): 12.7 g/dL
- monocytes (Day-14): 1.3%
- neutrophils (Day-14): 85%
- platelet count (Day-14): 383 ×100/μL
